Experiments:
[1] = molecular target: T1, soluble guanylate cyclase (sGC) (Bos taurus, UniProt P16068+P19687); assay: Activity of purified sGC stimulated with DEA/NO; format: biochemical, bovine; details: for Emax of DEA/NO-stimulated sGC activity in presence of flavoring: flavoring 1 mM, DEA/NO 0.01–10 μM
T1 construct: The activity of sGC purified from bovine lung; from tissue; host or cells: bovine lung
T1 sequence (P19687 1-691): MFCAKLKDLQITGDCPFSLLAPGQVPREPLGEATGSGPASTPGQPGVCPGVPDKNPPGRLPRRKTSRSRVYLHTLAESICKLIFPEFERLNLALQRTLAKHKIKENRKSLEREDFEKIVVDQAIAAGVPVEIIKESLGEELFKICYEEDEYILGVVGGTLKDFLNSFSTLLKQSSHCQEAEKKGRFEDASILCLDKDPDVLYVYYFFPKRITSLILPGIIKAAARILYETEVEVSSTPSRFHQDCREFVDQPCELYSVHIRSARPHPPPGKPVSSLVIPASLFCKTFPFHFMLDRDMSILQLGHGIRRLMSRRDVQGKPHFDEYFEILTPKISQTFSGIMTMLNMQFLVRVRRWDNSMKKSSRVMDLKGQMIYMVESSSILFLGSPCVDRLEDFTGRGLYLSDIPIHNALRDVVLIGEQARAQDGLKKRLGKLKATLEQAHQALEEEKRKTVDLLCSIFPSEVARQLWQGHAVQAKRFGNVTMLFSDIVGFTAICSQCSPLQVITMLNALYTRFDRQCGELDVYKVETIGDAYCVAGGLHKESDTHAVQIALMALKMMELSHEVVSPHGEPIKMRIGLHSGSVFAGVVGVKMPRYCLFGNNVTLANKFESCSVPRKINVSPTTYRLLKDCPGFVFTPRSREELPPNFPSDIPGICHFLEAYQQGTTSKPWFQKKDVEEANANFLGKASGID
T1 sequence (P16068 1-619): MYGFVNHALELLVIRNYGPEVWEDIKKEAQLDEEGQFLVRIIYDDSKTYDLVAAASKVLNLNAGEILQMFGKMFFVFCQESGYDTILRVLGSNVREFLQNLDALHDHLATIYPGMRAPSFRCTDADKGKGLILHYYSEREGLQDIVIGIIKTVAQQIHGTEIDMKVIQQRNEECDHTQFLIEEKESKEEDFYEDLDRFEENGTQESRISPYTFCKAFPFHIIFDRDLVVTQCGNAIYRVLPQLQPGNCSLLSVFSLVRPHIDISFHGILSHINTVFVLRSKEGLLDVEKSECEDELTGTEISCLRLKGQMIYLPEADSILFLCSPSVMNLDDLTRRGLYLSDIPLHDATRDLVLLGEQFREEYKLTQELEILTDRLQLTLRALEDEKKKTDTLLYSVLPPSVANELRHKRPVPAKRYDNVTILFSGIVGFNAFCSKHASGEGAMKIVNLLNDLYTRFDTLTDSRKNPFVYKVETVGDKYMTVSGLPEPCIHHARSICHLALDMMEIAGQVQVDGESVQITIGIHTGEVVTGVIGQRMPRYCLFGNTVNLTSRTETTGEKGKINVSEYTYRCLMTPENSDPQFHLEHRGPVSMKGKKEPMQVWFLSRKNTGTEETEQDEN
Protocol: The activity of sGC purified from bovine lung was determined as formation of [^32P]cGMP from [α-^32P]GTP. The purified enzyme (50 ng) was incubated at 37°C for 10 min in a final volume of 0.1 ml in the absence or presence of flavorings with the NO donor DEA/NO at concentrations indicated in the figure legends, followed by isolation of [^32P]cGMP and quantification of radioactivity (Cerenkov radiation) in a β counter.
To test for reversibility of inhibition, sGC (50 ng) was preincubated in the absence or presence of the respective compounds for 5 minutes at 37°C, followed by 50-fold dilution in the assay mixtures and incubation with DEA/NO at 37°C for 10 minutes.

endothelial cells [2] = assay: MTT to formazan conversion (viability); format: cell-based, porcine; details: 1 mM, 60 minutes
Protocol: The viability of endothelial cells was judged by incubation with 1 mM of the flavoring compounds, followed by determination of 3-(4,5-dimethyl-2-thiazolyl)-2,5-diphenyltetrazolium bromide (MTT) to formazan conversion using the Cayman MTT Cell Proliferation Assay Kit purchased through VWR International (Vienna, Austria).

rat aortic rings [3] = assay: Effect of flavorings on vascular tone of U-46619 precontracted aortic rings; details: 95% CI; for EC50: Rattus norvegicus
Protocol: Unsexed Sprague-Dawley rats (obtained from Charles River, Sulzfeld, Germany) were housed at the local animal facility in approved cages. […] Animals were euthanized in a box that was gradually filled with CO2 until vital signs had ceased (cessation of respiration and circulation). Subsequently, the thorax of the animals was opened, the thoracic aorta was removed, cleaned from connective tissue and immediately used for assessment of vessel function.
After equilibration for 60 min at the optimal resting tension of 20 mN, maximal contractile activity was determined with a depolarizing solution containing 60 mM K^+. […] When contraction had reached a stable plateau (~after 20 min) cumulative concentration-response curves were established with flavorings. Where indicated, the effects of the flavorings on vascular tone were tested in the presence of the NOS inhibitor N^G-nitro-L-arginine methyl ester (L-NAME, 0.2 mM).
Concentration-response curves of different ring segments from a single animal were averaged and counted as an individual experiment.

endothelial cells [4] = assay: LDH release (membrane integrity); details: 1 mM, 60 minutes; maximum = 1% Triton
Protocol: To test for membrane integrity, endothelial cells were assayed for release of lactate dehydrogenase (LDH) into the culture medium. Subsequent to incubation with flavoring compounds (1 mM each) for 1 hour, 20-μl aliquots of the culture media were mixed with 200 μl of reagent buffer (1 mM pyruvate and 0.1 mM NAD^+ in PBS). The decrease in light absorbance at 340 nm was monitored using a diode array spectrophotometer (Hewlett Packard 8452A). Maximum LDH release was determined by treating the cells with 1% Triton X-100.

[5] = Electrochemical determination of NO released from DEA/NO (NO scavenging); details: DEA/NO 1 μM
Protocol: Scavenging of NO by flavoring compounds was studied with a nitric oxide sensor (ISO-NOP, World Precision Instruments, Berlin, Germany), calibrated with acidified nitrite as described previously. Free NO radical was generated by incubation of DEA/NO (1 μM) in 1 ml of 100 mM phosphate buffer, pH 7.4, in the absence or presence of superoxide dismutase (2500 U/ml) at ambient temperature. At the peak concentration of NO, flavoring compounds (10 μl of DSMO stock solutions) were added, DMSO served as vehicle control.

[6] = test system: endothelium-denuded rat aortic rings; assay: cAMP and cGMP levels in endothelium-denuded aortic rings; details: 10 µM
Source text: 1 S4 Table. […]
2 endothelium-denuded rat aortic rings.
Flavoring (fmol x mg-1) (fmol x mg-1)
4 En d o th e liu m-denuded rings, treated with test compounds as described in the
5 Materials and methods section of the main text, were freeze-clamped when maximal
6 relaxation had been reached. Rings were homogenized in 5% trichloroacetic acid
7 and analyzed for cAMP and cGMP by radioimmunoassay. Forskolin and DEA/NO
8 were used to induce maximal accumulation of cAMP and cGMP, respectively. Data
9 shown are mean values±SEM of 3 (forskolin and DEA/NO) or 6 (basal,
10 cinnamaldehyde and eugenol) rings; n.d., not determined, *p<0.05 vs. basal (ANOVA
11 and Dunnett's post hoc test).

[7] = test system: Porcine aortic endothelial cells (endogenous NO/cGMP pathway); assay: A23187 (Ca2+ ionophore)-induced endothelial cGMP formation; format: cell-based; details: NNA 0.3 mM
Protocol: Porcine aortic endothelial cells were isolated as described and cultured at 37°C, 5% CO2 for up to 3 passages in Dulbecco´s modified Eagle´s medium, containing 10% heat-inactivated fetal calf serum (FCS), 100 U/ml penicillin, 0.1 mg/ml streptomycin, and 1.25 μg/ml amphotericin B. Prior to experiments, cells were subcultured into 24-well plates (determination of cGMP formation) or 6-well plates (determination of L-citrulline formation).
Accumulation of intracellular 3',5'-cyclic GMP (cGMP) was determined as previously described. Briefly, endothelial cells were washed and preincubated with the compounds to be tested for 15 minutes at 37°C in 50 mM Tris buffer, pH 7.4, containing 100 mM NaCl, 5 mM KCl, 1 mM MgCl2, 2.5 mM CaCl2, 1 mM 3-isobutyl-1-methylxanthine, and 1 μM indomethacin. Reactions were started by addition of the Ca^2+ ionophore A 23187 (final concentration 1 μM) or the NO donor DEA/NO (final concentration 1 μM) and terminated after 4 minutes by removal of the incubation medium and addition of 0.01 M HCl. Within 1 h, intracellular cGMP was completely released into the supernatant and measured by radioimmunoassay.

rat aortic rings [8] = assay: Relaxation of U-46619 precontracted aortic rings to acetylcholine; details: vehicle, no flavoring, 95% CI, read-out: EC50 of vascular relaxation to acetylcholine
Protocol: Animal experiments were performed in compliance with the Austrian law on experimentation with laboratory animals (last amendment 2013) based on the European Union guidelines for the Care and the Use of Laboratory Animals (European Union Directive 2010/63/EU). Unsexed Sprague-Dawley rats (obtained from Charles River, Sulzfeld, Germany) were housed at the local animal facility in approved cages. They were fed standard chow (Altromin 3023; obtained from Königshofer Futtermittel, Ebergassing, Austria) and received water ad libitum. Animals were euthanized in a box that was gradually filled with CO2 until vital signs had ceased (cessation of respiration and circulation). […]
For isometric tension measurements, vessel rings with intact endothelium were suspended in 5-ml organ baths containing oxygenated Krebs-Henseleit buffer (concentrations in mM: NaCl 118.4, NaHCO3 25, KCl 4.7, KH2PO4 1.2, CaCl2 2.5, MgCl2 1.2, D-Glucose 11; pH 7.4), as previously described in detail. After equilibration for 60 min at the optimal resting tension of 20 mN, maximal contractile activity was determined with a depolarizing solution containing 60 mM K^+. […]
Effects are expressed as percent of relaxation of U-46619-induced contraction. Concentration-response curves of different ring segments from a single animal were averaged and counted as an individual experiment.

[9] = rats, after intravenous cinnamaldehyde; cited from earlier work
[10] = absence of L-NAME, read-out: EC50 of relaxation of pre-contracted vessels (Control)
[11] = presence of L-NAME 0.2 mM, read-out: EC50 of relaxation of pre-contracted vessels (L-NAME)

Row | SMILES | Emax of DEA/NO-stimulated sGC activity in presence of flavoring [1] | Formazan formation (% of control) (endothelial cells [2]) | EC50 (rat aortic rings [3]; [10]) | EC50 (rat aortic rings [3]; [11]) | LDH release (% of maximum) (endothelial cells [4]) | also measured
1 | CC(=O)c1ccccn1 [Acetylpyridine, 1-(Pyridin-2-yl)ethan-1-one] | 28±0.8 µmol cGMP x min-1 x mg-1 | 102±4.4 % of control | 3700 µM | 5600 µM | 0.7±0.12 % of maximum | 
2 | O=Cc1ccccc1 [Benzaldehyde, benzaldehyde] |  |  | 2200 µM | 2500 µM |  | 
3 | CC(=O)C(C)=O [Diacetyl, Butane-2,3-dione] |  | 95±4.6 % of control |  |  | 0.6±0.03 % of maximum | IC50 ([1]; DEA/NO 0.05 μM, 95% CI): 290 µM; Effect on recorded NO signal (NO scavenging) ([5]; 1 mM): only moderate effects; Effect on recorded NO signal (NO scavenging) ([5]; 10 mM): pronounced decrease; EC50 of relaxation of pre-contracted vessels (Control) (rat aortic rings [3]; absence of L-NAME): no effects below 10 mM
4 | Cc1cnc(C)cn1 [Dimethylpyrazine, 2,5-Dimethylpyrazine] | 27±0.7 µmol cGMP x min-1 x mg-1 | 103±3.7 % of control | 4200 µM | 5200 µM | 0.9±0.12 % of maximum | 
5 | CC12CCC(CC1)C(C)(C)O2 [Eucalyptol, 1,3,3-Trimethyl-2-oxabicyclo[2.2.2]octane] |  | 99±2.0 % of control |  |  | 1.0±0.27 % of maximum | EC50 of relaxation of pre-contracted vessels (Control) (rat aortic rings [3]; absence of L-NAME): no effects below 10 mM
6 | C=C[C@@]1(C)CC(=O)[C@]2(O)[C@@]3(C)[C@@H](O)CCC(C)(C)[C@@H]3[C@H](O)[C@H](OC(C)=O)[C@@]2(C)O1 [Forskolin, reference compound] |  |  |  |  |  | cAMP [6]: 9309±488 fmol x mg-1
7 | CC(=O)OCCC(C)C [Isoamylacetate, 3-Methylbutyl acetate] | 28±0.7 µmol cGMP x min-1 x mg-1 | 103±3.8 % of control |  |  | 0.7±0.28 % of maximum | EC50 of relaxation of pre-contracted vessels (Control) (rat aortic rings [3]; absence of L-NAME): no effects below 10 mM
8 | CC1CCC(C(C)C)C(O)C1 (stereo not drawn) [Menthol, 5-Methyl-2-(propan-2-yl)cyclohexan-1-ol] | 28±0.4 µmol cGMP x min-1 x mg-1 | 100±2.9 % of control | 1600 µM | 1400 µM | 0.8±0.03 % of maximum | 
9 | N=C(NCCC[C@H](N)C(=O)O)N[N+](=O)[O-] [NNA, N^G-nitro-L-arginine, reference compound] |  |  |  |  |  | Effect on A23187-induced cGMP accumulation [7]: completely inhibited
10 | COc1cc(C=O)ccc1O [Vanillin, 4-Hydroxy-3-methoxybenzaldehyde] | 25±0.6 µmol cGMP x min-1 x mg-1 | 109±6.7 % of control | 1700 µM | 1800 µM | 1.4±0.72 % of maximum | 
11 | CC(=O)OCC[N+](C)(C)C [acetylcholine] |  |  |  |  |  | EC50 (rat aortic rings [8]): 0.055 µM
12 | O=C(O)/C=C/c1ccccc1 [cinnamic acid] |  |  |  |  |  | Biological half-life [9]: about 7 minutes

Source: article PMC6733504, “Effects of flavoring compounds used in electronic cigarette refill liquids on endothelial and vascular function” (PLoS ONE, 2019)
